Measurements published in patent publication US12216122B2, “Compositions and methods relating to detection, inhibition, and imaging of indoleamine 2,3-dioxygenase 1 (IDO1)” (Regeneron Pharmaceuticals, Inc., priority 2019, dated 2025).
“Also recorded” adds a separate entry of the source. Where two headings read alike, the source gives them in different places. Numbered stars: 1 amine (or outer) side, 2 acyl side, 3 side chain; on linkers, the order of the positions; unused ones are H or OH. Bridge positions count the residues as written; N and C are the ends. Square brackets hold non-standard residues; d marks the D form. Triazole bridges read from a SMILES are 1,4-linked. Ends that are not written are not given here. Peptide text beside a SMILES is read from it. * marks the point of attachment. Biotinyl(3aR,4R,6aS) = O=C1N[C@@H]2[C@@H](CS[C@@H]2CCCCC(=O)*)N1; NH(CH2CH2O)5CH2CO = O=C(COCCOCCOCCOCCOCCN[*:1])[*:2]; dTrp(1-Me) = Cn1cc(C[C@@H](N)C(=O)O)c2ccccc21; X1 = O=C(CSc1nonc1/C(=N/O)Nc1ccc(F)c(Br)c1)*; Lys(N3) = [N-]=[N+]=NCCCC[C@H](N)C(=O)O; dPhe(4-F) = N[C@H](Cc1ccc(F)cc1)C(=O)O; dNMeV = CN[C@@H](C(=O)O)C(C)C; AEEEA = NCCOCCOCCOCC(=O)O; Pra = C#CC[C@H](N)C(=O)O; βAla = NCCC(=O)O

Tests used:
[1] = Percent organic elution in reverse-phase HPLC (C18) as lipophilicity readout; assay type: physicochemical; details: for % MeCN: Table 16
Source text: The predicted increase in lipophilicity for wyvay (SEQ ID NO:2) was experimentally confirmed by the percent organic (% B) elution during reverse-phase HPLC (RP-HPLC) using a C18 column where solvents A=water+0.1% TFA and B=acetonitrile+0.1% TFA.

[2] = target: T1, His-tagged IDO1 human recombinant protein (Homo sapiens, UniProt P14902); assay: IDO1 ELISA (Affinity Assay): sandwich ELISA, biotinylated ligand immobilized on NEUTRAVIDIN plate; assay type: binding; details: for Binding to human IDO1 by ELISA, in words: alanine scan, 3-mer/4-mer and substituted variants compared with parent macrocycle
T1 construct: purchased BPS Biosciences 71182
T1 sequence (P14902 whole entry): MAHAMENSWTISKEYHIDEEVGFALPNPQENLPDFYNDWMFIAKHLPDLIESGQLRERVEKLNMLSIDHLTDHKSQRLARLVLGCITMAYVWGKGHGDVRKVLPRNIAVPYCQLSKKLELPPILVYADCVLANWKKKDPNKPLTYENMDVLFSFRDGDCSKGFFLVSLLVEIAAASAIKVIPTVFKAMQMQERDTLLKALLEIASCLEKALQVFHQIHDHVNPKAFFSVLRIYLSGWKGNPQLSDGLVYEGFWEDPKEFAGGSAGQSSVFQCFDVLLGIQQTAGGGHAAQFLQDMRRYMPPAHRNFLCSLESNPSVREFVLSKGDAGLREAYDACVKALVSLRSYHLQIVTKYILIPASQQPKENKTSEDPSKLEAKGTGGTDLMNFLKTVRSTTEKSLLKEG
Description: (§1) Protocol: A black 96-well NEUTRAVIDIN® Coated High Binding Capacity plate (15510, Pierce) was coated with 2 μM biotinylated macrocyclic peptide ligand in TBS (25 mM Tris-HCl, 150 mM NaCl, pH 7.6) for 2 h at room temperature. The plate was aspirated and then washed with Wash Buffer (0.05% (v/v) TWEEN® 20 in PBS, 6×). His-tagged IDO1 human recombinant protein (71182, BPS Biosciences) was serially diluted in Wash Buffer (from 200 to 0 nM) and incubated in the designated microwells for 1 h at room temperature. Microwells were aspirated and subsequently washed with Wash Buffer (11×). To detect the bound IDO1 protein, Alkaline Phosphatase (AP)-conjugated Anti-6×HIS TAG® antibody [HIS-1] (ab49746, Abcam) was prepared at 1:10,000 dilution and added to the microwells for 1 h at room temperature. The plate was aspirated and washed with Wash Buffer (5×). ATTOPHOS® AP Fluorescent Substrate System (S1000, Promega) was employed to develop the microwells. Using an excitation wavelength of 430 nm, fluorescent emission at 535 nm was recorded by Beckman Coulter DTX880 photometer. Titration curves were fit using a four-parameter regression curve fitting program to determine EC50 values.
For these assays, a dilution series of His-tagged IDO1 human recombinant protein was captured using the macrocyclic peptide ligands immobilized on a NEUTRAVIDIN®-coated plate. […] The sequences of the peptide ligands are listed in Table 1, where D-amino acids are denoted in lowercase, Me-Trp=1-methyl-L-tryptophan, and F-Phe=4-fluoro-L-phenylalanine. Chemical structures are shown below Table 1.
The D-alanine substituted, biotin-PEG3-modified macrocycles were tested in the IDO1 ELISA (Affinity assay). For these assays, a dilution series of His-tagged IDO1 human recombinant protein was captured using macrocycles immobilized on a NEUTRAVIDIN®-coated plate.

murine IDO1 protein = murine IDO1 protein (Mus musculus, UniProt P28776); assay: ELISA against murine IDO1 protein (species cross-reactivity); assay type: binding; details: Table 10; read-out: Mouse IDO EC50
Sequence of murine IDO1 protein (P28776 whole entry): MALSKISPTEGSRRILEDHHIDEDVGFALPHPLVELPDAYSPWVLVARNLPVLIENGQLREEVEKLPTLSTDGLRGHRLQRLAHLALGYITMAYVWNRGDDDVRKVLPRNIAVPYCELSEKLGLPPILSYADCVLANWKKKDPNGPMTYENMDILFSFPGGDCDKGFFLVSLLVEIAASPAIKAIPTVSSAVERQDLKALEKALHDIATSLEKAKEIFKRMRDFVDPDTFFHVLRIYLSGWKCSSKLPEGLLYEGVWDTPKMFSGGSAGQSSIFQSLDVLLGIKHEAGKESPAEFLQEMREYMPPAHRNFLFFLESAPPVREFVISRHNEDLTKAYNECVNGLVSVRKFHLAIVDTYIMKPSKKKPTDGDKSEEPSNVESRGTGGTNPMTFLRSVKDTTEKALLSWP
Description: as §1
To test for cross-reactivity with murine IDO1, the human IDO1 targeted macrocyclic peptide ligands were assayed against the murine IDO1 protein by ELISA.

HeLa cells = assay: Cellular internalization of fluorescent IDO1 ligands (flow cytometry); assay type: cell-based; details: for Internalization of fluorescently labeled peptide, in words: Cy5 or FITC label, flow cytometry
Description: Internalization of fluorescently labeled peptides (using Cy5 or FITC) was measured by concentration dependent flow cytometry of unstimulated HeLa cells incubated for one hour with the peptide. […] Internalization was also testing using a cellular inhibition assay, which occurs over 48 hours (rather than the one hour for the flow cytometry assay). Internalized FITC-wyvay (SEQ ID NO:2) at 48 hours was compared to one hour in both unstimulated and stimulated HeLa cells (Table 13). Cell penetration of FITC-wyvay (SEQ ID NO:2) increases with time; more internalized FITC-wyvay (SEQ ID NO:2) can be detected at 48 hours compared to one hour. After one hour, no difference in intracellular staining of FITC-wyvay (SEQ ID NO:2) is observed in unstimulated versus stimulated cells. At 48 hours, there is a slight increase in intracellular FITC-wyvay (SEQ ID NO:2) in stimulated compared to unstimulated cells.
Protocol: HeLa cells were cultured to confluence (˜500,000 cells) in 6-well plates in cell culture medium (DMEM+10% Fetal Bovine Serum (FBS)+1% Penicillin/Streptomycin) or in cell culture medium containing 100 ng/mL IFNγ to stimulate IDO1 expression. The cells were treated with 2 μM or 8 μM macrocyclic IDO1 ligand labeled with either Cy5 or FITC for either 1 hour, 24 hours, or 48 hours as indicated. After treatment, the ligands were aspirated and the cells were washed twice with 1× Phosphate Buffered Saline (PBS). The cells were then harvested by treatment with 0.05% Trypsin-1×EDTA for 5 min at 37° C. Trypsin was quenched by the addition of PBS+2% FBS. The cells in suspension were washed twice in PBS+2% FBS, then resuspended in 500 μL PBS+2% FBS and analyzed for Cy5 or FITC fluorescence using a BD LSR Fortessa X-20 flow cytometer or/and ImageStream X Mark II imaging flow cytometer. Flow Cytometry Standard (fcs) data files were analyzed using FlowJo Software version 10.

[3] = 2 μM biotinylated macrocycle immobilized, human IDO1 titrated 200 to 0 nM, read-out: EC50, sandwich ELISA for human IDO1 protein against biotin-PEG3-modified macrocycle
[4] = Table 10, read-out: Human IDO EC50
[5] = binding analysis of VHL-linked Epitope 2 ligand, read-out: EC50

With `CC(C)[C@H](NC(=O)CCNC(=O)CSc1nonc1/C(=N/O)Nc1ccc(F)c(Br)c1)C(=O)N[C@H](C(=O)N[C@H](C(=O)N[C@H]1Cc2cn(nn2)CCCC[C@@H](C(N)=O)NC(=O)[C@@H](Cc2ccc(O)cc2)NC(=O)[C@@H](C)NC(=O)[C@@H](C(C)C)NC(=O)[C@@H](Cc2ccc(O)cc2)NC(=O)[C@@H](Cc2c[nH]c3ccccc23)NC1=O)C(C)C)C(C)C` [Inh-BA-(Val)3-wyvay] ({X1-βAla}-VVV[Pra][dW][dY][dV][dA][dY][Lys(N3)]-NH2; triazole 4-10) the “% MeCN” value [1] was 45.12%.

In the case of `CC(C)[C@H]1NC(=O)[C@@H](Cc2ccc(O)cc2)NC(=O)[C@@H](Cc2c[nH]c3ccccc23)NC(=O)[C@@H](NC(=O)COCCOCCOCCOCCOCCNC(=O)CCNC(=O)CSc2nonc2/C(=N/O)Nc2ccc(F)c(Br)c2)Cc2cn(nn2)CCCC[C@@H](C(N)=O)NC(=O)[C@@H](Cc2ccc(O)cc2)NC(=O)[C@@H](C)NC1=O` [Inh-BA-PEG5-wyvay] ({X1-βAla}-[NH(CH2CH2O)5CH2CO][Pra][dW][dY][dV][dA][dY][Lys(N3)]-NH2; triazole 2-8; N-terminus and C-terminus assumed), the “% MeCN” value [1] is reported as 46.90%.

In the case of `CC(C)[C@H]1NC(=O)[C@@H](Cc2ccc(O)cc2)NC(=O)[C@@H](Cc2c[nH]c3ccccc23)NC(=O)[C@@H](NC(=O)CNC(=O)CNC(=O)CNC(=O)CNC(=O)CNC(=O)CNC(=O)CNC(=O)CSc2nonc2/C(=N/O)Nc2ccc(F)c(Br)c2)Cc2cn(nn2)CCCC[C@@H](C(N)=O)NC(=O)[C@@H](Cc2ccc(O)cc2)NC(=O)[C@@H](C)NC1=O` [Inh-Gly7-wyvay] (X1-GGGGGGG[Pra][dW][dY][dV][dA][dY][Lys(N3)]-NH2; triazole 8-14), the “% MeCN” value [1] is reported as 43.72%.

`Cn1cc(C[C@H]2NC(=O)[C@@H](Cc3ccccc3)NC(=O)[C@@H](CCCNC(=N)N)NC(=O)[C@@H](Cc3ccccc3)NC(=O)[C@@H](NC(=O)COCCOCCOCCNC(=O)CCCC[C@H]3SC[C@H]4NC(=O)N[C@H]43)Cc3cn(nn3)CCCC[C@@H](C(N)=O)NC(=O)[C@@H](CO)NC2=O)c2ccccc21` [frf(Me-Trp)s, biotin-PEG3-Cy(frf(Me-Trp)s)] ({Biotinyl(3aR,4R,6aS)-AEEEA}-[Pra][dF][dR][dF][dTrp(1-Me)][dS][Lys(N3)]-NH2; triazole 1-7) gave an EC50 [2, 3] of 20 nM, an EC50 ([2]; Example 9, read-out: Binding affinity (EC50) of prioritized Epitope 1 hits) of 20 nM and an EC50 [2, 4] of 18 ± 2 nM. The EC50 (murine IDO1 protein) was 36 ± 16 nM.

With `CC(C)C[C@H]1NC(=O)[C@@H](CC(N)=O)NC(=O)[C@@H](NC(=O)COCCOCCOCCNC(=O)CCCC[C@H]2SC[C@H]3NC(=O)N[C@H]32)Cc2cn(nn2)CCCC[C@@H](C(N)=O)NC(=O)[C@@H](Cc2ccc(F)cc2)NC(=O)[C@@H](Cc2cn(C)c3ccccc23)NC(=O)[C@@H](Cc2ccccc2)NC1=O` [nlf(Me-Trp)(F-Phe), biotin-PEG3-Cy(nlf(Me-Trp)(F-Phe))] ({Biotinyl(3aR,4R,6aS)-AEEEA}-[Pra][dN][dL][dF][dTrp(1-Me)][dPhe(4-F)][Lys(N3)]-NH2; triazole 1-7) the EC50 [2, 3] was 20 nM, the EC50 [2, 4] was 19 ± 1 nM and the EC50 [2, 5] was 44 nM. It also gave an EC50 (murine IDO1 protein) of 89 ± 26 nM.

Compound `CC(C)C[C@H]1NC(=O)[C@@H](CC(N)=O)NC(=O)[C@@H](NC(=O)COCCOCCOCCNC(=O)CCCC[C@H]2SC[C@H]3NC(=O)N[C@H]32)Cc2cn(nn2)CCCC[C@@H](C(N)=O)NC(=O)[C@@H](CCCNC(=N)N)NC(=O)[C@@H](Cc2cn(C)c3ccccc23)NC(=O)[C@@H](Cc2c[nH]c3ccccc23)NC1=O` [nlw(Me-Trp)r, biotin-PEG3-Cy(nlw(Me-Trp)r)] ({Biotinyl(3aR,4R,6aS)-AEEEA}-[Pra][dN][dL][dW][dTrp(1-Me)][dR][Lys(N3)]-NH2; triazole 1-7) has an EC50 [2, 3] of 43 nM, an EC50 [2, 4] of 51 ± 17 nM and an EC50 (murine IDO1 protein) of 48 nM.

Compound `NC(=O)[C@@H]1CCCCn2cc(nn2)C[C@H](NC(=O)COCCOCCOCCNC(=O)CCCC[C@H]2SC[C@H]3NC(=O)N[C@H]32)C(=O)N[C@H](CO)C(=O)N2CCC[C@@H]2C(=O)N[C@H](Cc2c[nH]c3ccccc23)C(=O)N[C@H](Cc2c[nH]c3ccccc23)C(=O)N[C@H](Cc2ccc(F)cc2)C(=O)N1` [spww(F-Phe), biotin-PEG3-Cy(spww(F-Phe))] ({Biotinyl(3aR,4R,6aS)-AEEEA}-[Pra][dS][dP][dW][dW][dPhe(4-F)][Lys(N3)]-NH2; triazole 1-7) has an EC50 [2, 3] of 65 nM, an EC50 [2, 4] of 85 ± 18 nM and an EC50 (murine IDO1 protein) of 44 nM.

For `N=C(N)NCCC[C@H]1NC(=O)[C@@H](Cc2ccc(O)cc2)NC(=O)[C@@H](Cc2c[nH]c3ccccc23)NC(=O)[C@@H](NC(=O)COCCOCCOCCNC(=O)CCCC[C@H]2SC[C@H]3NC(=O)N[C@H]32)Cc2cn(nn2)CCCC[C@@H](C(N)=O)NC(=O)[C@@H](Cc2ccc(O)cc2)NC1=O` [wyry, Biotin-PEG3-Cy(wyry)] ({Biotinyl(3aR,4R,6aS)-AEEEA}-[Pra][dW][dY][dR][dY][Lys(N3)]-NH2; triazole 1-6), the “Binding to human IDO1 by ELISA, in words” value [2] was “best affinity among the 4-mer macrocycles; also recorded: superior binding affinity” and the “Internalization of fluorescently labeled peptide, in words” value (“Internalization” for short) (HeLa cells) was “Concentration dependent internalization”.

In the case of `CC(C)[C@H]1NC(=O)[C@@H](Cc2ccc(O)cc2)NC(=O)[C@@H](Cc2c[nH]c3ccccc23)NC(=O)[C@@H](N)Cc2cn(nn2)CCCC[C@@H](C(N)=O)NC(=O)[C@@H](Cc2ccc(O)cc2)NC(=O)[C@@H](C)NC1=O` [wyvay] (H-[Pra][dW][dY][dV][dA][dY][Lys(N3)]-NH2; triazole 1-7), the EC50 ([2]; Table 12, read-out: EC50) is reported as 45 nM, the “Binding to human IDO1 by ELISA, in words” value [2] is reported as “modest loss in binding affinity” and the EC50 [2, 5] is reported as 45 nM. The “Internalization” value (HeLa cells) was “dose response cellular uptake; also recorded: Concentration dependent internalization” and the “HPLC % B” value ([1]; Table 12, C18, A=water+0.1% TFA, B=acetonitrile+0.1% TFA) was 33.4%.

Work on “FITC-wyvay: FITC labeled wyvay macrocycle ([dW][dY][dV][dA][dY]; triazole (positions not given here); also: FITC label, site not given here, macrocycle by click between N-terminal Pra and C-terminal Az4, not in chain)” yielded an MFIR (HeLa cells; stimulated HeLa cells, 1 hour) of 2.11, an MFIR (HeLa cells; stimulated HeLa cells, 48 hours) of 5.27 and an MFIR (HeLa cells; unstimulated HeLa cells, 1 hour) of 2.27. It also gave an MFIR (HeLa cells; unstimulated HeLa cells, 48 hours) of 4.91.

In the case of “wy(N-Me-v)ay: wyvay peptide ligand with N-methylated valine (third N—H) ([Pra][dW][dY][dNMeV][dA][dY]; triazole N-C; not fully specified (C-terminus); printed as wy(N-Me-v)ay)”, the “Internalization” value (HeLa cells) is reported as “much higher than wyvay”.
